Common to all, as to type: cell-based
Series [1] deals with U937-PKR+ cells. Put plainly: Interferon induction in U937-PKR+ cells (IFN assay of culture supernatants). Here is the method: (§1) FIG. 2. Interferon induction in U937-PKR+ cells and control U937-neo cells. U937-PKR+ cells and U937-neo cells (0.5×10^6/ml) were cultured in RPMI 1640 medium, supplemented with 5% fetal bovine serum. The cells were pretreated (“primed”) with or without 10 nM PMA for 20 hrs followed by induction with 10 μg/ml poly r(I):poly r(C) or with 0.1 TCID50/cell EMCV for 20 hrs. Twenty-four hours after induction, culture supernatants were collected and assayed for IFN-α. The open bars indicate U937-neo cells, the hatched bars indicate U937-PKR+ cells. The experimental groups indicate different treatments: 1-no treatment; 2-poly r(I):poly r(C) induction alone; 3-EMCV induction alone; 4-PMA priming alone; 5-PMA priming and poly r(I):poly r(C) induction; 6-PMA priming and EMCV induction.
(§2) The levels of IFN-α in the preparations can be determined by titrating for antiviral activity on L929 (murine fibroblast) cells against National Institute of Allergy and Infectious Diseases reference standard G-023-901-527 (Lau et al. J. Clin. Invest. 82:1415-1421 1988). In this technique, 5×10^4 L929 cells are seeded into each well of 96-well microtiter plates and then incubated with two-fold serial dilutions of culture supernatants for 16 hr. The cells are subsequently challenged with EMCV or Sendai virus (0.1 or 0.01 TCID per cell). Virus-induced cytopathic effects were assessed by microscopic examination and by staining cells with 0.1% crystal violet in 5% ethanol solutions. The IFN titer is defined as the reciprocal of the highest dilution of culture supernatants capable of protecting 50% of the cells from viral-induced cytopathic effects.
U937-PKR+ cells and U937-neo cells were cultured in RPMI 1640 medium, supplemented with fetal bovine serum. The cells were pretreated with or without phorbol myristate acetate (PMA) (10 nM) for 20 hr and with or without subsequent stimulation by poly r(I):r(C), 10 ug/ml, for 20 hr. Twenty-four hr after the stimulation with poly r(I):r(C), culture supernatants were collected for IFN assays.

The next series deals with U937-neo cells. In words: Interferon induction in control U937-neo cells (IFN assay of culture supernatants). Particulars: inducer 10 μg/ml for 20 hr, either with or without 10 nM PMA priming. Here is the method:
as §1
as §2, with “The cells are subsequently challenged with EMCV or Sendai virus (0.1 or 0.01 TCID per cell).” left out, “The IFN titer is defined as the reciprocal of the highest dilution of culture supernatants capable of protecting 50% of the cells from viral-induced cytopathic effects.” left out

Series [2] deals with U937-PKR+ cells. In words: Trypan blue exclusion viability assay following induction. From the text:
Following induction by poly r(I):poly r(C), the U937-PKR+ cells were examined for viability using a trypan blue exclusion assay. […] Thus, the U937-PKR+ cells can be recycled for continuous production of IFN.

In the case of `CCCCCCCCCCCCCC(=O)O[C@@H]1[C@@H](C)[C@@]2(O)[C@@H](C=C(CO)C[C@]3(O)C(=O)C(C)=C[C@@H]23)[C@@H]2C(C)(C)[C@]12OC(C)=O` [PMA, phorbol myristate acetate], in the series on U937-PKR+ cells [1] (PMA priming alone, no EMCV or poly r(I):poly r(C) inducer, compared with U937-neo cells), the IFN production entry is “higher levels of IFNs than did U937-neo cells”.

In the case of poly r(I):poly r(C), the IFN production entry in the series with U937-PKR+ cells [1] (inducer 10 μg/ml for 20 hr, with or without 10 nM PMA priming) is listed as “increased IFN production”. Moreover, the IFN level in the series with U937-PKR+ cells [1] (with 10 nM PMA priming 20 hr, then induction) is given as 4000 U/ml. Also, the IFN-α synthesis result with U937-neo cells is reported as “minimal synthesis of IFN-α”. Also, the viable cells entry with U937-PKR+ cells [2] is given as “more than 95%”.

Values taken from patent US6855519B2, “Methods for enhancing the production of interferon in cell culture” (The Regents of the University of California, priority 1995, dated 2005).
